Test results reported in ChEMBL document CHEMBL3885861, “Open TG-GATES”.

Organism: Rattus norvegicus
Assay: Open TG-GATES - Regimen: Single
Format: toxicity, organism-based, Sprague-Dawley
Set-up: regimen Single, gender Male, age 6 weeks
Conditions: in vivo, po, 0 mg/kg, route gavage, dose level Control; for APTT / Bas / Eos / Fbg / Hb / Ht / Lym / MCH / MCHC / MCV / Mono / Neu / PT / Plat / RBC / Ret / WBC: tissue Blood; for KIDNEY_L / KIDNEY_R / KIDNEY_TOTAL: tissue Kidney; for LIVER: tissue Liver; for A/G / ALP / ALT / AST / BUN / CRE / Ca / Cl / DBIL / GLC / IP / LDH / Na / PL / RALB / TBIL / TC / TG / TP / gamma-GTP: tissue Plasma

NC(N)=Nc1nc(CSCCC(N)=NS(N)(=O)=O)cs1 [FAMOTIDINE]
TERMINAL_BW (3 h): 217.3 g | APTT (3 h): 20.1 s | Bas (3 h): 0% | Eos (3 h): 1% | Fbg (3 h): 209.8 mg/dL | Hb (3 h): 13.2 g/dL | Ht (3 h): 37.2% | Lym (3 h): 64.8% | MCH (3 h): 22.3 pg | MCHC (3 h): 35.5% | MCV (3 h): 62.6 fL | Mono (3 h): 3.8% | Neu (3 h): 26.8% | PT (3 h): 12.5 s | Plat (3 h): 110.5 x10_4/uL | RBC (3 h): 593.6 x10_4/ul | Ret (3 h): 8.2% | WBC (3 h): 81.2 x10_2/uL | KIDNEY_L (3 h): 1 g | KIDNEY_R (3 h): 1 g | KIDNEY_TOTAL (3 h): 1.9 g | LIVER (3 h): 10.4 g | A/G (3 h): 1.7 | ALP (3 h): 809.6 IU/L | ALT (3 h): 39 IU/L | AST (3 h): 71 IU/L | BUN (3 h): 10.8 mg/dL | CRE (3 h): 0.4 mg/dL | Ca (3 h): 10.8 mg/dL | Cl (3 h): 103.2 meq/L | DBIL (3 h): 0.078 mg/dL | GLC (3 h): 197.2 mg/dL | IP (3 h): 9.1 mg/dL | LDH (3 h): 196.4 IU/L | Na (3 h): 140.8 meq/L | PL (3 h): 139 mg/dL | RALB (3 h): 3.4 g/dL | TBIL (3 h): 0.1 mg/dL | TC (3 h): 77.4 mg/dL | TG (3 h): 55.8 mg/dL | TP (3 h): 5.4 g/dL | gamma-GTP (3 h): 1.4 IU/L | TERMINAL_BW (6 h): 212.9 g | APTT (6 h): 20 s | Bas (6 h): 0% | Eos (6 h): 0.8% | Fbg (6 h): 218.6 mg/dL | Hb (6 h): 13.4 g/dL | Ht (6 h): 37.6% | Lym (6 h): 79.4% | MCH (6 h): 22 pg | MCHC (6 h): 35.7% | MCV (6 h): 61.7 fL | Mono (6 h): 2.4% | Neu (6 h): 15.2% | PT (6 h): 12.4 s | Plat (6 h): 119.6 x10_4/uL | RBC (6 h): 610.2 x10_4/ul | Ret (6 h): 6.9% | WBC (6 h): 94.2 x10_2/uL | KIDNEY_L (6 h): 1 g | KIDNEY_R (6 h): 1 g | KIDNEY_TOTAL (6 h): 2 g | LIVER (6 h): 9.3 g | A/G (6 h): 1.5 | ALP (6 h): 928.8 IU/L | ALT (6 h): 32.6 IU/L | AST (6 h): 64.2 IU/L | BUN (6 h): 9.2 mg/dL | CRE (6 h): 0.4 mg/dL | Ca (6 h): 10.7 mg/dL | Cl (6 h): 102.6 meq/L | DBIL (6 h): 0.068 mg/dL | GLC (6 h): 193.8 mg/dL | IP (6 h): 9 mg/dL | LDH (6 h): 193.6 IU/L | Na (6 h): 140 meq/L | PL (6 h): 142.8 mg/dL | RALB (6 h): 3.3 g/dL | TBIL (6 h): 0.1 mg/dL | TC (6 h): 80.6 mg/dL | TG (6 h): 60 mg/dL | TP (6 h): 5.5 g/dL | gamma-GTP (6 h): 1 IU/L | TERMINAL_BW (9 h): 209.9 g | APTT (9 h): 19.9 s | Bas (9 h): 0% | Eos (9 h): 1% | Fbg (9 h): 228.2 mg/dL | Hb (9 h): 13.3 g/dL | Ht (9 h): 36.7% | Lym (9 h): 65.4% | MCH (9 h): 22.9 pg | MCHC (9 h): 36.2% | MCV (9 h): 63.3 fL | Mono (9 h): 2.4% | Neu (9 h): 29% | PT (9 h): 12.7 s | Plat (9 h): 118.2 x10_4/uL | RBC (9 h): 580.8 x10_4/ul | Ret (9 h): 7.5% | WBC (9 h): 106.4 x10_2/uL | KIDNEY_L (9 h): 1 g | KIDNEY_R (9 h): 1 g | KIDNEY_TOTAL (9 h): 2 g | LIVER (9 h): 9.1 g | A/G (9 h): 1.5 | ALP (9 h): 883.2 IU/L | ALT (9 h): 28.4 IU/L | AST (9 h): 56.8 IU/L | BUN (9 h): 8.8 mg/dL | CRE (9 h): 0.3 mg/dL | Ca (9 h): 10.4 mg/dL | Cl (9 h): 102.8 meq/L | DBIL (9 h): 0.056 mg/dL | GLC (9 h): 205.2 mg/dL | IP (9 h): 9.4 mg/dL | LDH (9 h): 138.6 IU/L | Na (9 h): 140 meq/L | PL (9 h): 133.8 mg/dL | RALB (9 h): 3.2 g/dL | TBIL (9 h): 0.1 mg/dL | TC (9 h): 70.6 mg/dL | TG (9 h): 46.6 mg/dL | TP (9 h): 5.4 g/dL | gamma-GTP (9 h): 0.8 IU/L | TERMINAL_BW (24 h): 226.6 g | APTT (24 h): 19.6 s | Bas (24 h): 0% | Eos (24 h): 1% | Fbg (24 h): 232.4 mg/dL | Hb (24 h): 13.3 g/dL | Ht (24 h): 37.3% | Lym (24 h): 78.4% | MCH (24 h): 22.5 pg | MCHC (24 h): 35.7% | MCV (24 h): 63.2 fL | Mono (24 h): 2.8% | Neu (24 h): 15.8% | PT (24 h): 11.9 s | Plat (24 h): 126.9 x10_4/uL | RBC (24 h): 590 x10_4/ul | Ret (24 h): 6.6% | WBC (24 h): 84.4 x10_2/uL | KIDNEY_L (24 h): 1.1 g | KIDNEY_R (24 h): 1.1 g | KIDNEY_TOTAL (24 h): 2.1 g | LIVER (24 h): 11 g | A/G (24 h): 1.5 | ALP (24 h): 1002.2 IU/L | ALT (24 h): 34.2 IU/L | AST (24 h): 65.4 IU/L | BUN (24 h): 13.4 mg/dL | CRE (24 h): 0.4 mg/dL | Ca (24 h): 10.7 mg/dL | Cl (24 h): 102.6 meq/L | DBIL (24 h): 0.088 mg/dL | GLC (24 h): 186.4 mg/dL | IP (24 h): 7.3 mg/dL | LDH (24 h): 203.2 IU/L | Na (24 h): 139.4 meq/L | PL (24 h): 147.2 mg/dL | RALB (24 h): 3.4 g/dL | TBIL (24 h): 0.1 mg/dL | TC (24 h): 81.8 mg/dL | TG (24 h): 85.6 mg/dL | TP (24 h): 5.7 g/dL | gamma-GTP (24 h): 1 IU/L
